This is an account of results in patent US10125135B2, “Chemical compounds” (AstraZeneca AB, priority 2016, dated 2018).

≈ marks a conversion by molar mass, not a printed value.

The nature of series [1]: Thermodynamic solubility, shake-flask. It is filed as physicochemical. The settings on record: thermodynamic from solid; aqueous phosphate buffer pH 7.4, 24 hours at 25° C. The procedure: The thermodynamic solubility of a research compound is measured under standard conditions. It is a shake-flask approach that uses 10 mM DMSO solutions which are supplied from the Compound Managements liquid store and is a high throughput method. The dried compounds are equilibrated in an aqueous phosphate buffer (pH 7.4) for 24 hours at 25° C., the portion with the dissolved compound is then separated from the remains. The solutions are analyzed and quantified using UPLC/MS/MS, QC-samples are incorporated in each assay-run to ensure the quality of the assay.

Series [2] in a line: Human plasma protein binding, equilibrium dialysis (RED). The format is in vitro ADME. The settings on record: dialysis for 18 hours. The procedure: Human Plasma Protein Binding
The automated equilibrium dialysis assay in human plasma uses the RED (Rapid Equilibrium Dialysis) Device and sample handling. The assay generally runs over two to three days including delivery of results. After dialysis for 18 hours, plasma and buffer samples are prepared for analysis by liquid chromatography and mass spectrometry. Samples are generally tested in singlicates and quantified by LC/MSMS by using a 7-point calibration curve in plasma. The compounds are pooled together in plasma pools up to 10 compounds. Three reference compounds are used in each run, Propranolol, Metoprolol and Warfarin. Warfarin is used as a control in each pool and Propranolol and Metoprolol are placed randomly in each run. An in-house Excel macro is used for preparation of files for the robot and the mass spectrometer and also used for the calculations of fraction unbound (fu %) in plasma.

The target of series [3] is ERα receptor in MCF-7 human ductal carcinoma breast cell line (Homo sapiens (Human), UniProt P03372). Kind of series: MCF-7 ER down regulation assay (immuno-fluorescence). The format is cell-based. The settings on record: MCF-7 cells, 18-22 hours incubation; read-out: ER down regulation IC50 value.
Sequence of ERα receptor in MCF-7 human ductal carcinoma breast cell line (P03372 whole entry): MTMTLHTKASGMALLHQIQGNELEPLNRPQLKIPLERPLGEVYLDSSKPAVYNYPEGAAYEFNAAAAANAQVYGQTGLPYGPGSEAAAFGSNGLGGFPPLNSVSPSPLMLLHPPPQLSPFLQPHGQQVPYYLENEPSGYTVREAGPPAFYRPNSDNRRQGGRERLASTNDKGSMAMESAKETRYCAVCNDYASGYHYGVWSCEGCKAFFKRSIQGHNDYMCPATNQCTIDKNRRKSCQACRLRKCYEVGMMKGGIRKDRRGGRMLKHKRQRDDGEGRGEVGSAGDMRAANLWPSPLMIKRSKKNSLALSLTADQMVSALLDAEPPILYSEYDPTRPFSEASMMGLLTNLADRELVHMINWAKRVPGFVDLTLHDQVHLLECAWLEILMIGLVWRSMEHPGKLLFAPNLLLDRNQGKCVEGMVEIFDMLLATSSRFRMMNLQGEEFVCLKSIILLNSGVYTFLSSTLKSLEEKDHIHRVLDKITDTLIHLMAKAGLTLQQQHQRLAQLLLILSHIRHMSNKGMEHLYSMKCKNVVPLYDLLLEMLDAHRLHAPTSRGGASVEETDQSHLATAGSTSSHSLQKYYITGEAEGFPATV

Turning to `COc1cc(OCCN2CC(CF)C2)ccc1[C@@H]1c2ccc3[nH]ncc3c2C[C@@H](C)N1CC(C)C` [Example 9, (6S,8R)-6-(4-(2-(3-(fluoromethyl)azetidin-1-yl)ethoxy)-2-methoxyphenyl)-7-isobutyl-8-methyl-6,7,8,9-tetrahydro-3H-pyrazolo[4,3-f]isoquinoline], the solubility (as a rule, how much of the substance goes into solution per volume) at 24 h in series [1] was above 1000 µM. In addition, the “Human plasma protein binding (% free)” value in series [2] came to 52 % free. For the same compound, the DC50 in series [3] was 0.5 nM.
Take `COc1cc(OCCN2CC(CF)C2)ccc1[C@@H]1c2ccc3[nH]ncc3c2C[C@@H](C)N1CC1(F)CC1` [Example 6, (6S,8R)-7-((1-fluorocyclopropyl)methyl)-6-(4-(2-(3-(fluoromethyl)azetidin-1-yl)ethoxy)-2-methoxyphenyl)-8-methyl-6,7,8,9-tetrahydro-3H-pyrazolo[4,3-f]isoquinoline]: the solubility at 24 h in series [1] was found to be 957 µM (≈ 475 µg/mL). The “Human plasma protein binding (% free)” value in series [2] amounted to 21 % free. For the same compound, in series [3], the DC50 was 0.13 nM.
The matching figures for `C[C@@H]1Cc2c(ccc3[nH]ncc23)[C@@H](c2ccc(OCCN3CC(CF)C3)cn2)N1CC(F)F` [Example 51, (6S,8R)-7-(2,2-difluoroethyl)-6-(5-(2-(3-(fluoromethyl)azetidin-1-yl)ethoxy)pyridin-2-yl)-8-methyl-6,7,8,9-tetrahydro-3H-pyrazolo[4,3-f]isoquinoline]: 974 µM (≈ 448 µg/mL), 49 % free and 0.54 nM.
In series [1], `COc1cc(OCCN2CC(CF)C2)ccc1[C@@H]1c2ccc3[nH]ncc3c2C[C@@H](C)N1CC(C)(C)F` [Example 5, (6S,8R)-7-(2-fluoro-2-methylpropyl)-6-(4-(2-(3-(fluoromethyl)azetidin-1-yl)ethoxy)-2-methoxyphenyl)-8-methyl-6,7,8,9-tetrahydro-3H-pyrazolo[4,3-f]isoquinoline] displayed a solubility at 24 h of 263 µM (≈ 131 µg/mL). Further, the “Human plasma protein binding (% free)” value in series [2] came out at 6.2 % free. Besides, the DC50 in series [3] came to 0.16 nM.
On the same counts, the results for `C[C@@H]1Cc2c(ccc3[nH]ncc23)[C@@H](c2ccc(OCCN3CC(CF)C3)cn2)N1CC1(F)CC1` [Example 8, (6S,8R)-7-((1-fluorocyclopropyl)methyl)-6-(5-(2-(3-(fluoromethyl)azetidin-1-yl)ethoxy)pyridin-2-yl)-8-methyl-6,7,8,9-tetrahydro-3H-pyrazolo[4,3-f]isoquinoline] are above 1000 µM, 34 % free and 0.39 nM.
With `C[C@@H]1Cc2c(ccc3[nH]ncc23)[C@@H](c2ccc(OCCN3CC(CF)C3)cn2)N1CC(F)(F)F` [Example 49, (6S,8R)-6-(5-(2-(3-(fluoromethyl)azetidin-1-yl)ethoxy)pyridin-2-yl)-8-methyl-7-(2,2,2-trifluoroethyl)-6,7,8,9-tetrahydro-3H-pyrazolo[4,3-f]isoquinoline], the solubility at 24 h in series [1] is above 1000 µM. Further, the “Human plasma protein binding (% free)” value in series [2] was found to be 23 % free. In addition, the DC50 in series [3] is 0.21 nM.
